Experimental data as given in article PMC2952885 (ChemMedChem, 2009).

The molecules below were run against PDE7A1 catalytic domain (residues 130–482) (Homo sapiens, UniProt Q13946) (assay: [3H]cAMP hydrolysis radioassay).
Format: biochemical

Chain of PDE7A1 catalytic domain (residues 130–482) (Q13946 130-482): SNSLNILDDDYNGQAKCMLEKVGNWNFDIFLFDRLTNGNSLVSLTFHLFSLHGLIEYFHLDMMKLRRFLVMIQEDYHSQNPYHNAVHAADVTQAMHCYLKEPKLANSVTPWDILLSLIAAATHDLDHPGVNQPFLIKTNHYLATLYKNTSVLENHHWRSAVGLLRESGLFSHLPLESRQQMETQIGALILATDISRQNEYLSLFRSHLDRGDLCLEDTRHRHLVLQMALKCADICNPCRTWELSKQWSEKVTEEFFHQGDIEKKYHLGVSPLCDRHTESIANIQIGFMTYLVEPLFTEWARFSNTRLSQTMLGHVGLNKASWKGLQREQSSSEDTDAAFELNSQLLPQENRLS

IC50	Compound
129 ± 10 µM	COc1ccc(C2CNC(=O)C2)cc1OC1CCCC1 (centres unmarked) [Rolipram, reference compound]
~10 µM	CSc1nc2ccsc2c(=O)n1-c1ccccc1 [compound 35, 2-Methylthio-4-oxo-3-phenyl-3,4-dihydrothieno[3,2-d]pyrimidine]
8.1 ± 0.4 µM	CC(C)Cn1c(=O)n(C)c(=O)c2[nH]cnc21 [IBMX, reference compound]
0.41 ± 0.03 µM	CSc1nc2c(sc3ccccc32)c(=O)n1-c1c(F)cccc1F [compound 39, 3-(2,6-Difluorophenyl)-2-methylthio-4-oxo-3,4-dihydrobenzo-[4,5]thieno[3,2-d]pyrimidine]
0.8 ± 0.2 µM	CSc1nc2ccsc2c(=O)n1-c1c(F)cccc1F [compound 36, 3-(2,6-Difluorophenyl)-2-methylthio-4-oxo-3,4-dihydrothieno-[3,2-d]pyrimidine]
